Test results published in ChEMBL document CHEMBL2040799, “Exploring the Requirements for the Hydrophobic Scaffold and Polar Amine in inhibitors of M2 from Influenza A Virus” (ACS Med Chem Lett, 2011).

Experiments:
Oocyte = assay: Inhibition of Influenza A Virus M2 proton channel expressed in Xenopus laevis oocytes at 100 uM after 2 mins by two-electrode […] assay; format: cell-based
[1] = Inhibition of Influenza A Virus M2 proton channel expressed in Xenopus laevis oocytes after 2 mins by two-electrode […] assay; format: cell-based; conditions: Oocyte

In the case of `O=C1C2CC3CC(C2)CC1C3`, the inhibition (Oocyte) is reported as 69% and the IC50 [1] is reported as 29 µM.
Molecule `N=C(N)C12CC3CC(CC(C3)C1)C2` has an inhibition (Oocyte) of 95% and an IC50 [1] of 4 µM.
With `NC1C2CC3CC(C2)CC1C3` (stereo not given) the inhibition (Oocyte) was 92%.
With `NC(CO)C12CC3CC(CC(C3)C1)C2` (stereo not given) the inhibition (Oocyte) was 90% and the IC50 [1] was 16 µM.
Molecule `NOC12CC3CC(CC(C3)C1)C2` has an inhibition (Oocyte) of 87%.
Work on `O=S(=O)(O)C12CC3CC(CC(C3)C1)C2` yielded an inhibition (Oocyte) of 3%.
In the case of `NC1Cc2ccccc2C1`, the inhibition (Oocyte) is reported as 6%.
`NC12CCC3CC(CC(C3)C1)C2` showed an inhibition (Oocyte) of 92% and an IC50 [1] of 29 µM.
In the case of `CC12CC3(O)CC1(C)CC3(O)C2`, the inhibition (Oocyte) is reported as 40%.
With `CC(C)(C)c1ccc(CN)cc1` the inhibition (Oocyte) was 40%.
With `NC1CC2CC1C1CCCC21` (stereo not given) the inhibition (Oocyte) was 94% and the IC50 [1] was 9 µM.
With `NNC1CCC2(CCCCC2)CC1` the inhibition (Oocyte) was 79% and the IC50 [1] was 31 µM.
Molecule `OC12CC3CC(CC(C3)C1)C2` has an inhibition (Oocyte) of 85% and an IC50 [1] of 20 µM.
In the case of `OC1CCC(C2CC3CCC2C3)CC1O` (stereo not given), the inhibition (Oocyte) is reported as 80%.
In the case of `NN1C(=O)CC2(CCCCC2)CC1=O`, the inhibition (Oocyte) is reported as 29%.
For `OC1CC2C3CCC(C3)C2C1O` (stereo not given), the inhibition (Oocyte) was 50%.
With `NC12CC3CCC(CC(C3)C1)C2` the inhibition (Oocyte) was 81% and the IC50 [1] was 24 µM.
For `NC1C2C3CC4C1C1C2CC3C41` (stereo not given), the inhibition (Oocyte) was 96% and the IC50 [1] was 8 µM.
For `O=C1CC2(CCCCC2)CC(=O)N1`, the inhibition (Oocyte) was 35%.
Molecule `CC1(O)C2CC3CC(C2)CC1C3` (stereo not given) has an inhibition (Oocyte) of 86% and an IC50 [1] of 14 µM.
With `N=C(N)NC(=N)NC12CC3CC(CC(C3)C1)C2` the inhibition (Oocyte) was 70%.
In the case of `NC1CCC2(CCCCC2)CC1`, the inhibition (Oocyte) is reported as 89%.
`N=C(N)NCC12CC3CCC(CC(C3)C1)C2` gave an inhibition (Oocyte) of 90%.
Molecule `NC12CC3CC(C1)CC(CO)(C3)O2` has an inhibition (Oocyte) of 13%.
Molecule `NC(=O)C12CC3CC(CC(C3)C1)C2` has an inhibition (Oocyte) of 75%.
In the case of `NC12CC3CC(C1)CC(O)(C3)C2`, the inhibition (Oocyte) is reported as 5%.
Work on `C1CC2CC1C1CNCC21` (stereo not given) yielded an inhibition (Oocyte) of 74%.
`NC1C2C3CC4C2C(O)C2C1C3C42` (stereo not given) showed an inhibition (Oocyte) of 86% and an IC50 [1] of 24 µM.
With `C1CC2CC1C1CNC21` (stereo not given) the inhibition (Oocyte) was 45%.
`OC1C2C3CC4C2C(O)C2C1C3C42` (stereo not given) gave an inhibition (Oocyte) of 76%.
With `NC12CC3CC(CC(C3)C1)C2` the inhibition (Oocyte) was 91%.
In the case of `OC1C2C3CC4C1C1C2CC3C41` (stereo not given), the inhibition (Oocyte) is reported as 57%.
Work on `CC(C)(C)CC(C)(C)N` yielded an inhibition (Oocyte) of 87% and an IC50 [1] of 21 µM.
With `N=C(NO)C12CC3CC(CC(C3)C1)C2` the inhibition (Oocyte) was 72%.
Molecule `CC1(C)C(N)C1(C)C` has an inhibition (Oocyte) of 28%.
For `NN1CCC2(CCCCC2)CC1`, the inhibition (Oocyte) was 96% and the IC50 [1] was 7 µM.
In the case of `C1CCC2(CC1)CCNCC2`, the inhibition (Oocyte) is reported as 95% and the IC50 [1] is reported as 1 µM.
In the case of `N=C(N)NC12CC3CC(CC(C3)C1)C2`, the inhibition (Oocyte) is reported as 97% and the IC50 [1] is reported as 15 µM.
For `C1NC2CC3CC1CC(C3)C2`, the inhibition (Oocyte) was 84%.
Work on `C1CC2CCC1CNC2` yielded an inhibition (Oocyte) of 75%.
